Data set [1] in a line: Enzymatic stability: chymotrypsin digest of calcitonin-oligomer conjugates. The class given is in vitro ADME. As for the experimental part:
Compounds, supplied as lyophilized powders, are resuspended in 10 mM phosphate buffer pH 7.4 and then submitted for concentration determination by HPLC. The phosphate buffer is used to create a solution with a pH that is optimum for activity of each particular gut enzyme. Aliquots of the compound thus prepared are transferred to 1.7 mL microcentrifuge tubes and shaken in a 37° C. water bath for 15 minutes to allow compounds to equilibrate to temperature. After 15 minutes, 2 μL of the appropriate concentrated gut enzyme is added to each tube to achieve the final concentration desired. Chymotrypsin and trypsin are resuspended in 1 mM HCl. Also, as a control, compounds are treated with 2 μL of 1 mM HCl. Immediately following additions, 100 μL of sample is removed from the control tube and quenched with either 25 μL of chymotrypsin/trypsin quenching solution (1:1 1% TFA:Isopropanol). This sample will serve as T=0 min. A sampling procedure is repeated at various time intervals depending on the gut enzyme used. […] Trypsin has 30, 60, 120 and 180 minute samples. Once all points have been acquired, a final sample is removed from the control tube to make sure that observed degradation is not temperature or buffer related. […] RP-BPLC (acetonitrile gradient) is used to determine AUC for each sample and % degradation is calculated based from the T=0 min control. […]

A short description of data set [2]: Enzymatic stability: trypsin digest of calcitonin-oligomer conjugates. The class given is in vitro ADME. The following applies: 10 mM phosphate buffer, control tube without enzyme, pH 7.4, Control tube (1 mM HCl, no enzyme). As for the experimental part:
Compounds, supplied as lyophilized powders, are resuspended in 10 mM phosphate buffer pH 7.4 and then submitted for concentration determination by HPLC. The phosphate buffer is used to create a solution with a pH that is optimum for activity of each particular gut enzyme. Aliquots of the compound thus prepared are transferred to 1.7 mL microcentrifuge tubes and shaken in a 37° C. water bath for 15 minutes to allow compounds to equilibrate to temperature. After 15 minutes, 2 μL of the appropriate concentrated gut enzyme is added to each tube to achieve the final concentration desired. Chymotrypsin and trypsin are resuspended in 1 mM HCl. Also, as a control, compounds are treated with 2 μL of 1 mM HCl. Immediately following additions, 100 μL of sample is removed from the control tube and quenched with either 25 μL of chymotrypsin/trypsin quenching solution (1:1 1% TFA:Isopropanol). This sample will serve as T=0 min. A sampling procedure is repeated at various time intervals depending on the gut enzyme used. Chymotrypsin has 15, 30 and 60 minute samples. Trypsin has 30, 60, 120 and 180 minute samples. Once all points have been acquired, a final sample is removed from the control tube to make sure that observed degradation is not temperature or buffer related. The chymotrypsin and trypsin samples may be collected directly into HPLC vials. RP-BPLC (acetonitrile gradient) is used to determine AUC for each sample and % degradation is calculated based from the T=0 min control. The results are provided below in Tables 1 to 4.

Data set [3] deals with Male CF-1 mice. Kind of data set: Serum calcium lowering after single oral dose in fasted mice. The conditions noted are these: single oral dose 2.0 μg/kg, average serum calcium. The class given is in vivo. As for the experimental part:
Male CF-1 mice (Charles River, Raleigh, N.C.) weighing […] were housed in the Nobex vivarium in a light—(L:D cycle of 12:12, lights on at 0600 h), temperature—(21-23° C.), and humidity—(40-60% relative humidity) controlled room. Animals were permitted free access to laboratory chow (PMI Nutrition) and tap water. Mice were allowed to acclimate to housing conditions for 48-72 hours prior to the day of experiment.
Prior to dosing, mice were fasted overnight and water was provided ad libitum. Mice were randomly distributed into groups of five animals per time point and were administered a single oral dose of a PEG7-octyl-sCT, diconjugate (Octyl Di) according to the present invention or salmon calcitonin (sCT or Calcitonin) for comparison purposes. […]
At appropriate time points, mice were ether-anesthetized, the vena cavae exteriorized, and blood samples were obtained via a syringe fitted with a 25-gauge needle. […] Total serum calcium was determined for each animal using a calibrated Vitros DT60 II analyzer.
Serum calcium data were plotted and pharmacokinetic parameters determined via curve-fitting techniques using SigmaPlot software Version 4.1). Means and standard deviations (or standard errors) were calculated and plotted to determine effect differences among dosing groups.

In data set [4] the test system is normal fasted beagle dogs. Kind of data set: Activity and inter-subject variability, oral liquid formulation, fasted beagle dogs. The format is in vivo. The conditions noted are these: 0.25 mg/kg oral liquid, fasted beagles, blood glucose. An excerpt: As yet another example, a substantially monodispersed mixture of drug-oligomer conjugates preferably has an inter-subject variability that is less than the inter-subject variability of a polydispersed mixture of drug-oligomer conjugates having the same number average molecular weight as the substantially monodispersed mixture. As will be understood by those skilled in the art, the number average molecular weight of the substantially monodispersed mixture and the number average weight of the polydispersed mixture may be measured by various methods including, but not limited to, size exclusion chromatography. The inter-subject variability may be measured by various methods as will be understood by those skilled in the art. The inter-subject variability is preferably calculated as follows. The area under a dose response curve (AUC) (i.e., the area between the dose-response curve and a baseline value) is determined for each subject. The average AUC for all subjects is determined by summing the AUCs of each subject and dividing the sum by the number of subjects. The absolute value of the difference between the subject's AUC and the average AUC is then determined for each subject. The absolute values of the differences obtained are then summed to give a value that represents the inter-subject variability. Lower values represent lower inter-subject variabilities and higher values represent higher inter-subject variabilities.
An effective animal model for evaluating formulations uses normal fasted beagle dogs. These dogs are given 0.25 mg/kg of insulin conjugates to evaluate the efficacy of various formulations.
The protocol for dog experiments calls for a blood glucose measurement at time zero just before a drug is administered. The oral liquid dosage formulation is then squirted into the back of the dog's mouth. In each case, the dogs received 0.25 mg/kg of this solution. Blood is drawn at 15, 30, 60 and 120 minutes and glucose levels are measured and graphed. The lower the glucose levels, the better the activity of the insulin conjugate.

As for `COCCOCCOCCOCCOCCOCCOCCOCCCCCCCC(=O)NCCCC[C@H](NC(=O)CNC(=O)[C@H](CC(C)C)NC(=O)[C@@H](NC(=O)[C@@H]1CSSC[C@H](N)C(=O)N[C@@H](CO)C(=O)N[C@@H](CC(N)=O)C(=O)N[C@@H](CC(C)C)C(=O)N[C@@H](CO)C(=O)N[C@@H]([C@@H](C)O)C(=O)N1)C(C)C)C(=O)N[C@@H](CC(C)C)C(=O)N[C@@H](CO)C(=O)N[C@@H](CCC(N)=O)C(=O)N[C@@H](CCC(=O)O)C(=O)N[C@@H](CC(C)C)C(=O)N[C@@H](Cc1c[nH]cn1)C(=O)N[C@@H](CCCCNC(=O)CCCCCCCOCCOCCOCCOCCOCCOCCOCCOC)C(=O)N[C@@H](CC(C)C)C(=O)N[C@@H](CCC(N)=O)C(=O)N[C@H](C(=O)N[C@@H](Cc1ccc(O)cc1)C(=O)N1CCC[C@H]1C(=O)N[C@@H](CCCNC(=N)N)C(=O)N[C@H](C(=O)N[C@@H](CC(N)=O)C(=O)N[C@H](C(=O)NCC(=O)N[C@@H](CO)C(=O)NCC(=O)N[C@H](C(=O)N1CCC[C@H]1C(N)=O)[C@@H](C)O)[C@@H](C)O)[C@@H](C)O)[C@@H](C)O`, the remaining at 1 h stood at 104% in data set [1] (10 mM phosphate buffer, control tube without enzyme, pH 7.4, Control tube (1 mM HCl, no enzyme), Non-Formulated, time 60 min) and 103% in data set [2] (time 60 min). The remaining at 2 h in data set [2] (time 120 min) was found to be 106%. Moreover, the remaining at 3 h in data set [2] (time 180 min) turned out to be 104%. Moreover, the “% Baseline Calcium Drop at 2.0 μg/kg dose” value in data set [3] was found to be 21.0%.
Regarding `CC(C)C[C@H](NC(=O)[C@H](CCCCN)NC(=O)CNC(=O)[C@H](CC(C)C)NC(=O)[C@@H](NC(=O)[C@@H]1CSSC[C@H](N)C(=O)N[C@@H](CO)C(=O)N[C@@H](CC(N)=O)C(=O)N[C@@H](CC(C)C)C(=O)N[C@@H](CO)C(=O)N[C@@H]([C@@H](C)O)C(=O)N1)C(C)C)C(=O)N[C@@H](CO)C(=O)N[C@@H](CCC(N)=O)C(=O)N[C@@H](CCC(=O)O)C(=O)N[C@@H](CC(C)C)C(=O)N[C@@H](Cc1c[nH]cn1)C(=O)N[C@@H](CCCCN)C(=O)N[C@@H](CC(C)C)C(=O)N[C@@H](CCC(N)=O)C(=O)N[C@H](C(=O)N[C@@H](Cc1ccc(O)cc1)C(=O)N1CCC[C@H]1C(=O)N[C@@H](CCCNC(=N)N)C(=O)N[C@H](C(=O)N[C@@H](CC(N)=O)C(=O)N[C@H](C(=O)NCC(=O)N[C@@H](CO)C(=O)NCC(=O)N[C@H](C(=O)N1CCC[C@H]1C(N)=O)[C@@H](C)O)[C@@H](C)O)[C@@H](C)O)[C@@H](C)O` [Salmon Calcitonin, salmon calcitonin, reference compound], the remaining at 10 min in data set [1] (chymotrypsin (0.5 U/mL) in phosphate buffer, pH 7.4, Non-Formulated, time 10 min, pH 7.4, 37° C., read-out: % Remaining Following 0.5 U/mL Chymotrypsin Digest) was determined as 73%.
Consider “PEG4-hexyl-insulin, monoconjugate: non-polydispersed mixture of mPEG4-hexyl-insulin, B29 monoconjugates”, for which, in data set [4], the “activity (glucose lowering) versus polydispersed PEG7AVG-hexyl-insulin, monoconjugate” value is recorded as “higher activity” and the “inter-subject variability versus polydispersed PEG7AVG-hexyl-insulin, monoconjugate” value was “less inter-subject variability”.
The corresponding values for “PEG7-hexyl-insulin, monoconjugate: human insulin monoconjugated at the B29 position with the activated oligomer of Example 18” are “higher activity” and “less inter-subject variability”.
The corresponding values for “PEG10-hexyl-insulin, monoconjugate: non-polydispersed mixture of mPEG10-hexyl-insulin, B29 monoconjugates” are “higher activity” and “less inter-subject variability”.
